Test results published in the NIST ThermoML archive (doi:10.1016/j.jct.2012.12.010).
± gives the expanded uncertainty stated by the source.

What was measured:
[1] = 101 kPa, Liquid; for speed of sound: Linear variable-path acoustic interferometer; for mass density: Pycnometric method
[2] = mn = molality of the nth substance listed, in mol/kg; details: 101 kPa, Liquid, m2 = 0; for speed of sound: Linear variable-path acoustic interferometer; for mass density: Pycnometric method

In the case of O [water], the speed of sound ([1]; 275.15 K) is reported as 1412.2 ± 2.8 m/s, the mass density ([1]; 275.15 K) is reported as 999.94 ± 0.47 kg/m3 and the speed of sound ([1]; 279.15 K) is reported as 1430.6 ± 2.8 m/s. It also gave a mass density ([1]; 279.15 K) of 999.94 ± 0.47 kg/m3, a speed of sound ([1]; 283.15 K) of 1447.3 ± 2.8 m/s and a mass density ([1]; 283.15 K) of 999.7 ± 0.46 kg/m3.

For O [water] + N=C(N)NCCC[C@H](N)C(=O)O, the speed of sound ([2]; 275.15 K) was 1412.2 ± 2.8 m/s, the mass density ([2]; 275.15 K) was 999.94 ± 0.47 kg/m3 and the speed of sound ([2]; 279.15 K) was 1430.6 ± 2.8 m/s. The mass density ([2]; 279.15 K) was 999.94 ± 0.47 kg/m3, the speed of sound ([2]; 283.15 K) was 1447.3 ± 2.8 m/s and the mass density ([2]; 283.15 K) was 999.7 ± 0.46 kg/m3.

With O [water] + C[C@@H](O)[C@H](N)C(=O)O the speed of sound ([2]; 275.15 K) was 1412.2 ± 2.8 m/s, the mass density ([2]; 275.15 K) was 999.94 ± 0.47 kg/m3 and the speed of sound ([2]; 279.15 K) was 1430.6 ± 2.8 m/s. The mass density ([2]; 279.15 K) was 999.94 ± 0.47 kg/m3, the speed of sound ([2]; 283.15 K) was 1447.3 ± 2.8 m/s and the mass density ([2]; 283.15 K) was 999.7 ± 0.46 kg/m3.

O [water] + CC(C)[C@H](N)C(=O)O showed a speed of sound ([2]; 275.15 K) of 1412.2 ± 2.8 m/s, a mass density ([2]; 275.15 K) of 999.94 ± 0.47 kg/m3 and a speed of sound ([2]; 279.15 K) of 1430.6 ± 2.8 m/s. For the same compound, the mass density ([2]; 279.15 K) was 999.94 ± 0.47 kg/m3, the speed of sound ([2]; 283.15 K) was 1447.3 ± 2.8 m/s and the mass density ([2]; 283.15 K) was 999.7 ± 0.46 kg/m3.
